These results are taken from patent US10618916B2, “Heterocyclic compounds as immunomodulators” (Incyte Corporation, priority 2018, dated 2020).

For assay [1], the target named is PD-1/PD-L1 protein/protein interaction (recombinant human PD-L1 and human PD-1) (Homo sapiens (Human), UniProt Q9NZQ7). The assay is described as follows: Homogeneous Time-Resolved Fluorescence (HTRF) PD-1/PD-L1 binding assay. On the procedure: Example A. Homogeneous Time-Resolved Fluorescence (HTRF) PD-1/PD-L1 Binding Assay
The assays were conducted in a standard black 384-well polystyrene plate with a final volume of 20 μL. Inhibitors were first serially diluted in DMSO and then added to the plate wells before the addition of other reaction components. The final concentration of DMSO in the assay was 1%. The assays were carried out at 25° C. in the PBS buffer (pH 7.4) with 0.05% Tween-20 and 0.1% BSA. Recombinant human PD-L1 protein (19-238) with a His-tag at the C-terminus was purchased from AcroBiosystems (PD1-H5229). Recombinant human PD-1 protein (25-167) with Fc tag at the C-terminus was also purchased from AcroBiosystems (PD1-H5257). PD-L1 and PD-1 proteins were diluted in the assay buffer and 10 μL was added to the plate well. Plates were centrifuged and proteins were preincubated with inhibitors for 40 minutes. The incubation was followed by the addition of 10 μL of HTRF detection buffer supplemented with Europium cryptate-labeled anti-human IgG (PerkinElmer-AD0212) specific for Fc and anti-His antibody conjugated to SureLight®-Allophycocyanin (APC, PerkinElmer-AD0059H). After centrifugation, the plate was incubated at 25° C. for 60 min. before reading on a PHERAstar FS plate reader (665 nm/620 nm ratio). Final concentrations in the assay were—3 nM PD1, 10 nM PD-L1, 1 nM europium anti-human IgG and 20 nM anti-His-Allophycocyanin. IC50 determination was performed by fitting the curve of percent control activity versus the log of the inhibitor concentration using the GraphPad Prism 5.0 software.

Assay [2] has as its system PD-L1 aAPC/CHO-K1 cells and Jurkat-PD-1-NFAT effector cells. The assay is described as follows: Nuclear factor of activated T-cells (NFAT) assay. It counts as cell-based. The following applies: Cricetulus griseus, CHO-K1. As for the experimental part:
Example C. Nuclear Factor of Activated T-Cells (NFAT) Assay
PD-L1 aAPC/CHO-K1 cells (Promega) were maintained in F-12 medium with addition of 10% FBS, 200 μg/ml Hygromycin B, 250 μg/ml Geneticin (G418). Jurkat-PD-1-NFAT effector cells (Promega) were cultured in RPMI 1640 medium supplemented with 10% FBS, 100 μg/ml Hygromycin B, 500 μg/ml G418. The culture media of PD-L1 aAPC/CHO-K1 cells were first replaced with assay medium (RPMI1640 medium with 1% FBS). The PD-L1 aAPC/CHO-K1 cells were then added in a white 384-well white clear bottom assay plate (CELLCOAT® Tissue Culture Plates, Greiner Bio-One) at 8000 per well in 10 μL assay medium. Test compounds were prepared by serial dilution in DMSO and 0.8 μL test compounds in DMSO were first transferred to the 384 REMP plate well (Thermofisher) by PlateMate Plus (Thermofisher) followed with addition of 50 μL plating medium. 5 μL compounds in the assay medium were transferred to the cells with 0.4% DMSO in the final assay at 2 μM. After removing the culture media, 10,000 Jurkat-PD-1-NFAT effector cells in 5 μL assay medium was dispensed into each well. The assay plate was incubated at 37° C., 5% CO2 for 24 hours. After the assay plate was equilibrated to room temp for 15 minutes, 20 µL/well of Bio-Glo™ reagent (Promega) were added. After 8 minutes incubation at room temperature, luminescence was read at with Pherastar microplate reader (BMG Labtech). The fold of induction (FOI) was calculated based on the ratio of luminescence normalized to the DMSO wells within each assay plate. The maximum percentage of induction was reported based on the ratio between the highest FOI of each compound and the maximum FOI of control compound within each assay plate. Wells with DMSO were served as the negative controls and wells containing control compound with the highest FOI were used as positive controls. EC50 determination was performed by fitting the curve of percent control activity versus the log of the compound concentration using the GraphPad Prism 6.0 software.

For assay [3], the system named is U2OS/PD-L1 cells and Jurkat-PD-1-SHP cells. Description: Src homology region 2 domain-containing phosphatase (SHP) assay. It counts as cell-based. Conditions: Homo sapiens, U2OS. On the procedure:
Example B. Src Homology Region 2 Domain-Containing Phosphatase (SHP) Assay
U2OS/PD-L1 cells (DiscoveRx Corporation) were maintained in McCoy's 5A medium with addition of 10% FBS, 0.25 μg/ml Puromycin. After removing the culture media, the cell medium was replaced with assay medium (RPMI1640 medium with 1% FBS). The U2OS/PD-L1 cells were then added in 384-well black clear bottom assay plate (CELLCOAT® Tissue Culture Plates, Greiner Bio-One) at 5000 cells per well in 20 μL assay medium. Test compounds were prepared by serial dilution in DMSO and 125 nL compound were first transferred to the 384 REMP plate well (Thermofisher) by ECHO liquid handler (Labcyte) followed with addition of 27.5 μL assay medium. 5 μL/well compounds in the assay medium were transferred to the cell plate with 0.05% DMSO in the final assay at […]. Jurkat-PD-1-SHP cells (DiscoveRx Corporation) were cultured in RPMI1640 medium supplemented with 10% FBS, 250 μg/ml Hygromycin B, 500 μg/ml G418. After the replacement of culture media with assay medium, 5,000 Jurkat-PD-1-SHP cells in 20 μL were dispensed into each well. The assay plate was incubated at 37° C., 5% CO2 for 2 hours before 2.5 μL PathHunter reagent 1 (DiscoveRx Corporation) were added to each well. The assay plate was shaken for 1 min at 350 rpm in the dark followed with addition of 10 μL PathHunter reagent 2 (DiscoveRx Corporation). Chemiluminescent signal was recorded with TopCount reader (Perkin Elmer) after incubation at room temperature for 1 hour. Wells with DMSO were served as the positive controls and wells containing no cells were used as negative controls. IC50 determination was performed by fitting the curve of percentage of control activity versus the log of the compound concentration using the GraphPad Prism 6.0 software.

The structures appear in SMILES notation.

Sequence of PD-1/PD-L1 protein/protein interaction (recombinant human PD-L1 and human PD-1) (Q9NZQ7 19-238): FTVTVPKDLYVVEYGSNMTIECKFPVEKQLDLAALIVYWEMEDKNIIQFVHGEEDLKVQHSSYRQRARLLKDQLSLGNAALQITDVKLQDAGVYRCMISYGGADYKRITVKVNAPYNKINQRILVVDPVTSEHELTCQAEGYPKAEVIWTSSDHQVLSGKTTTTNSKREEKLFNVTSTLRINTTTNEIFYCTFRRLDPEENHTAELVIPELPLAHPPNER

For the compound `Cc1c(NC(=O)c2nc3c(n2C)CCN(C)C3)cccc1-c1cccc(NC(=O)c2nc3c(n2C)CCN(CCC24CCC(C(=O)O)(CC2)C4)C3)c1Cl` [Example 29, 4-(2-(2-((2-chloro-3′-(1,5-dimethyl-4,5,6,7-tetrahydro-1H-imidazo[4,5-c]pyridine-2-carboxamido)-2′-methyl-[1,1′-biphenyl]-3-yl)carbamoyl)-1-methyl-1,4,6,7-tetrahydro-5H-imidazo[4,5-c]pyridin-5-yl)ethyl)bicyclo[2.2.1]heptane-1-carboxylic acid], the IC50 in assay [1] is no more than 5 nM; in assay [3], no more than 10 nM. Also, the EC50 in assay [2] was in the range of 10 to 100 nM.

`Cc1c(NC(=O)c2nc3c(n2C)CCN(CCC24CCC(C(=O)O)(CC2)C4)C3)cccc1-c1cccc(NC(=O)c2nc3c(n2C)CCN(C)C3)c1Cl` [Example 39, 4-(2-(2-((2′-chloro-3′-(1,5-dimethyl-4,5,6,7-tetrahydro-1H-imidazo[4,5-c]pyridine-2-carboxamido)-2-methyl-[1,1′-biphenyl]-3-yl)carbamoyl)-1-methyl-1,4,6,7-tetrahydro-5H-imidazo[4,5-c]pyridin-5-yl)ethyl)bicyclo[2.2.1]heptane-1-carboxylic acid]: the concentration for half-maximal inhibition (IC50) was no more than 5 nM in assay [1] and no more than 10 nM in assay [3]. The EC50 in assay [2] lay in the range of 10 to 100 nM.

Regarding `Cn1c(C(=O)Nc2cccc(-c3cccc(NC(=O)c4nc5c(n4C)CCNC5)c3C#N)c2Cl)nc2c1CCN(CCC13CCC(C(=O)O)(CC1)C3)C2` [Example 46, 4-(2-(2-((2-chloro-2′-cyano-3′-(1-methyl-4,5,6,7-tetrahydro-1H-imidazo[4,5-c]pyridine-2-carboxamido)-[1,1′-biphenyl]-3-yl)carbamoyl)-1-methyl-1,4,6,7-tetrahydro-5H-imidazo[4,5-c]pyridin-5-yl)ethyl)bicyclo[2.2.1]heptane-1-carboxylic Acid], the 50% inhibitory concentration (IC50) in assay [1] is no more than 5 nM; in assay [3], no more than 10 nM. For the same compound, the half-maximal effective concentration (EC50) in assay [2] lay in the range of 10 to 100 nM.

Take `CN1CCc2c(nc(C(=O)Nc3cccc(-c4cccc(NC(=O)c5nc6c(n5C)CCN(CCC57CCC(C(=O)O)(CC5)C7)C6)c4Cl)c3C#N)n2C)C1` [Example 48, 4-(2-(2-((2-chloro-2′-cyano-3′-(1,5-dimethyl-4,5,6,7-tetrahydro-1H-imidazo[4,5-c]pyridine-2-carboxamido)-[1,1′-biphenyl]-3-yl)carbamoyl)-1-methyl-1,4,6,7-tetrahydro-5H-imidazo[4,5-c]pyridin-5-yl)ethyl)bicyclo[2.2.1]heptane-1-carboxylic acid]: the values for the half-inhibitory concentration (IC50) in assay [1] and in assay [3] were no more than 5 nM and no more than 10 nM, respectively. Moreover, the EC50 in assay [2] lay in the range of 10 to 100 nM.

`Cn1c(C(=O)Nc2cccc(-c3cccc(NC(=O)c4nc5c(n4C)CCN(CC46CCC(C(=O)O)(CC4)C6)C5)c3C#N)c2Cl)nc2c1CCN(CCC13CCC(C(=O)O)(CC1)C3)C2` [Example 52, 4-((2-((3′-(5-(2-(4-carboxybicyclo[2.2.1]heptan-1-yl)ethyl)-1-methyl-4,5,6,7-tetrahydro-1H-imidazo[4,5-c]pyridine-2-carboxamido)-2′-chloro-2-cyano-[1,1′-biphenyl]-3-yl)carbamoyl)-1-methyl-1,4,6,7-tetrahydro-5H-imidazo[4,5-c]pyridin-5-yl)methyl)bicyclo[2.2.1]heptane-1-carboxylic acid]: the results for the half-inhibitory concentration (IC50) in assay [1] and in assay [3] were no more than 5 nM and 10 to 100 nM, respectively. In addition, the EC50 in assay [2] was 100 to 500 nM.

Consider `Cc1c(NC(=O)c2nc3c(n2C)CCNC3)cccc1-c1cccc(NC(=O)c2nc3c(n2C)CCN(CCC24CCC(C(=O)O)(CC2)C4)C3)c1C` [Example 53, 4-(2-(2-((2,2′-dimethyl-3′-(1-methyl-4,5,6,7-tetrahydro-1H-imidazo[4,5-c]pyridine-2-carboxamido)-[1,1′-biphenyl]-3-yl)carbamoyl)-1-methyl-1,4,6,7-tetrahydro-5H-imidazo[4,5-c]pyridin-5-yl)ethyl)bicyclo[2.2.1]heptane-1-carboxylic Acid], for which the IC50 in assay [1] is no more than 5 nM; in assay [3] it was no more than 10 nM. This compound gave a concentration giving a half-maximal response (EC50) in assay [2] of 10 to 100 nM.

Consider `Cc1c(NC(=O)c2nc3c(n2C)CCN(CCC24CCC(C(=O)O)(CC2)C4)C3)cccc1-c1cccc(NC(=O)c2nc3c(n2C)CCN(CC24CCC(C(=O)O)(CC2)C4)C3)c1C` [Example 55, 4-((2-((3′-(5-(2-(4-carboxybicyclo[2.2.1]heptan-1-yl)ethyl)-1-methyl-4,5,6,7-tetrahydro-1H-imidazo[4,5-c]pyridine-2-carboxamido)-2,2′-dimethyl-[1,1′-biphenyl]-3-yl)carbamoyl)-1-methyl-1,4,6,7-tetrahydro-5H-imidazo[4,5-c]pyridin-5-yl)methyl)bicyclo[2.2.1]heptane-1-carboxylic acid], for which the IC50 in assay [1] is no more than 5 nM; in assay [3], no more than 10 nM. The EC50 in assay [2] was in the range of 10 to 100 nM.

Turning to `Cc1c(NC(=O)c2nc3c(n2C)CCN(CCO)C3)cccc1-c1cccc(NC(=O)c2nc3c(n2C)CCN(CCC24CCC(C(=O)O)(CC2)C4)C3)c1C` [Example 59, 4-(2-(2-((3′-(5-(2-hydroxyethyl)-1-methyl-4,5,6,7-tetrahydro-1H-imidazo[4,5-c]pyridine-2-carboxamido)-2,2′-dimethyl-[1,1′-biphenyl]-3-yl)carbamoyl)-1-methyl-1,4,6,7-tetrahydro-5H-imidazo[4,5-c]pyridin-5-yl)ethyl)bicyclo[2.2.1]heptane-1-carboxylic acid], the half-inhibitory concentration (IC50) in assay [1] was no more than 5 nM; in assay [3] it was no more than 10 nM. This compound also came in with an EC50 in assay [2] of 100 to 500 nM.
